In one experiment the test system is J774 cells. The experiment in a line: ACAT inhibitory activity (anti-foamation activity) in J774 cells. The class given is cell-based. As to conditions: for IC50: J774 cells, 10 µg/ml 25-OH cholesterol, 18 hours, cholesterol ester = TC minus FC per protein, read-out: Enzyme (J774) IC50; for IC50 (HepG2) / IC50 (J774): ratio HepG2 / J774. The method, then:
(§1) J774 cells or HepG2 cells were spread on a 24-well plate. The cells were incubated in a 5% CO2 incubator at 37°C for 24 hours using DMEM in the case of the J774 cells and a MEM culture solution in the case of the HepG2 cells (both containing 10% fetal calf serum).
(§2) The medium was removed, and the residue was washed twice with PBS, then extracted with 1.5 ml of a hexane:isopropanol (3:2) mixture, and concentrated to dryness. The extract was dissolved in 0.2 ml of isopropanol containing 10% Triton X-100. Total cholesterol (TC) and free cholesterol (FC) were measured using Cholesterol E Test Wako (supplied by Wako Pure Chemical Industries, Ltd.) and Free Cholesterol E Test Wako (supplied by Wako Pure Chemical Industries, Ltd.).
(§3) The cell extract residue was solubilized in 0.25 ml of 2N NaOH at 37°C for 30 minutes, and the protein amount was measured using BCA Protein Assay Reagent (Pierce).
(§4) The amount of cholesterol based on the protein was calculated from the difference between TC and FC, and an IC50 value was obtained from the calculation in contrast with the control.

The subject of the next experiment is HepG2 cells. The experiment in a line: ACAT inhibitory activity (anti-foamation activity) in HepG2 cells. The class given is cell-based. The note with it: 10 µg/ml 25-OH cholesterol, 18 hours, cholesterol ester = TC minus FC per protein, read-out: Enzyme (HepG2) IC50. Here is the method:
as §1, §2, §3, §4

The target of experiment [1] is ACAT enzyme from the blood vessel wall (Oryctolagus cuniculus, UniProt G1SUQ0). The experiment in a line: ACAT inhibitory activity, microsomal enzyme from the blood vessel wall (breast aorta). It is filed as biochemical, rabbit. As to conditions: for IC50 (B‡) / IC50 (A‡): ratio small intestine / blood vessel wall. The method, then:
A microsome was prepared from the breast aorta of a rabbit which had been fed with 1% cholesterol food for 8 weeks in a usual manner, and suspended in a 0.15 M phosphate buffer solution (pH 7.4) to form an enzyme solution. An enzyme solution derived from the small intestine was prepared from the small intestine of a rabbit that had eaten a normal food.
To this solution were added 10 µl of the enzyme solution, and the mixture was reacted at 37°C for 5 minutes (for 3 minutes in the case of the small intestine). Then, 3 ml of a chloroform/methanol (2/1) mixture and 0.5 ml of 0.04 N hydrochloric acid were added thereto to stop the reaction. The lipid was then extracted. The solvent layer was concentrated to dryness, and dissolved in hexane. The solution was spotted on a TLC plate (supplied by Merck Co.). The elution was conducted with a hexane:ether:acetic acid (75:25:1) mixture.
The radioactivity of the resulting cholesterol ester fraction was measured using BAS 2000 (supplied by Fuji Photo Film Co., Ltd.). An IC50 value was obtained from the calculation in contrast with a control containing only DMSO.

Where two headings read alike, the source gives them in different places.

Chain of ACAT enzyme from the blood vessel wall (G1SUQ0 entry or part of it): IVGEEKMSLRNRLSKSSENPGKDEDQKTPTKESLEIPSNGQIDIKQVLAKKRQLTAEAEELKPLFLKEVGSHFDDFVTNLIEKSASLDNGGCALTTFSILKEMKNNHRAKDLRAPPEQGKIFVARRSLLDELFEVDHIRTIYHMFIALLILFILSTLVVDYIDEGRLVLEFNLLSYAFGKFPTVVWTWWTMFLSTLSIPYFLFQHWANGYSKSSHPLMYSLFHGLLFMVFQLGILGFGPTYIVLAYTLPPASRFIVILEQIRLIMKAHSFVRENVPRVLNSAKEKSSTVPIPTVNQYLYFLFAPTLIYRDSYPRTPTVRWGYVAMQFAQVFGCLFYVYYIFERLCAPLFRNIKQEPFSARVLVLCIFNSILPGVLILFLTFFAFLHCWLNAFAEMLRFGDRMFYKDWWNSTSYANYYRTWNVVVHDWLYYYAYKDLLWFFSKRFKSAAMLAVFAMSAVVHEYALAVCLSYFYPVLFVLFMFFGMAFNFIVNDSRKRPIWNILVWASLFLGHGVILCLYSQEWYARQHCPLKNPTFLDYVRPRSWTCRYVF

Regarding `CSc1cc(C)nc(SC)c1NC(=O)CCCCCSc1nc2ccccc2s1` [Compound No. 795, 6-(benzothiazol-2-ylthio)-N-[2,4-bis(methylthio)-6-methyl-3-pyridyl]hexanamide], the results for the IC50 in the experiment on J774 cells (Mus musculus) and with HepG2 cells (Homo sapiens) were 0.05 µM and 0.35 µM, respectively. Moreover, the “IC50 (HepG2) / IC50 (J774)” value with J774 cells was determined as 7.0.
For `CSc1cc(C)nc(SC)c1NC(=O)CCCCCCCSc1nc2ccccc2s1` [Compound No. 797, 8-(benzthiazol-2-ylthio)-N-[2,4-bis(methylthio)-6-methyl-3-pyridyl)octanamide], the half-maximal inhibitory concentration (IC50) (in general, the concentration needed to halve the response being measured) was 0.0036 µM with J774 cells (Mus musculus) and 0.029 µM with HepG2 cells (Homo sapiens). The “IC50 (HepG2) / IC50 (J774)” value in the experiment on J774 cells worked out at 8.1.
`CCSc1cc(C)nc(SCC)c1NC(=O)CSc1nc2ccccc2o1` [Compound No. 811, 2-(benzoxazol-2-ylthio)-N-[2,4-bis(ethylthio)-6-methyl-3-pyridyl]acetamide]: the results for the IC50 in the experiment on J774 cells (Mus musculus) and in the experiment with HepG2 cells (Homo sapiens) were 0.05 µM and 1.8 µM, respectively. Besides, the “IC50 (HepG2) / IC50 (J774)” value with J774 cells was 36.0.
The like results for `CCSc1cc(C)nc(SCC)c1NC(=O)CCCCCSc1nc2ccccc2o1` [Compound No. 815, 6-(benzoxazol-2-ylthio)-N-[2,4-bis(ethylthio)-6-methyl-3-pyridyl]hexanamide] were, in that order, 0.12 µM, 2.6 µM and 21.7.
The corresponding values for `CCSc1cc(C)nc(SCC)c1NC(=O)CCCCCCCCSc1nc2ccccc2o1` [Compound No. 818, 9-(benzoxazol-2-ylthio)-N-[2.4-bis(ethylthio)-6-methyl-3-pyridyl]nonanamide] are 0.062 µM, 0.063 µM and 1.0.
The corresponding values for `CCSc1cc(C)nc(SCC)c1NC(=O)CSc1nc2ccccc2[nH]1` [Compound No. 831, 2-(benzimidazol-2-ylthio)-N-[2,4-bis(ethylthio)-6-methyl-3-pyridyl]acetamide] are 0.057 µM, 5.4 µM and 94.7.
Regarding `CSc1cc(C)nc(SC)c1NC(=O)CCCCCCCSc1nc2cccc(C(F)(F)F)c2o1` [Compound No. 1253, 8-(7-trifluoromethylbenzoxazol-2-ylthio)-N-[2,4-bis(methylthio)-6-methyl-3-pyridyl]octanamide], the IC50 with J774 cells (Mus musculus) worked out at 0.0041 µM; in the experiment with HepG2 cells (Homo sapiens), 0.0044 µM. Further, the “IC50 (HepG2) / IC50 (J774)” value with J774 cells worked out at 1.1.
With `CCSc1cc(C)nc(SCC)c1NC(=O)CCCCCCSc1nc2c(C)c(Cl)cc(C(C)C)c2o1` [Compound No. 1282, 7-(5-chloro-7-isopropyl-4-methylbenzoxazol-2-ylthio)-N-[2,4-bis(ethylthio)-6-methyl-3-pyridyl]heptanamide], the IC50 with J774 cells (Mus musculus) came out at 0.0032 µM; with HepG2 cells (Homo sapiens), 0.0062 µM. For the same compound, in the experiment with J774 cells, the “IC50 (HepG2) / IC50 (J774)” value is 1.9.
Turning to `Cc1cc(SC(C)C)c(NC(=O)CCCCCCSc2nc3cccc(C(F)(F)F)c3o2)c(SC(C)C)n1` [Compound No. 1292, 7-(7-trifluoromethylbenzoxazol-2-ylthio)-N-[2,4-bis(isopropylthio)-6-methyl-3-pyridyl] heptanamide], in the experiment on J774 cells, the IC50 came to 0.0027 µM and the “IC50 (HepG2) / IC50 (J774)” value was determined as 11.1. Further, the IC50 in the experiment with HepG2 cells is 0.03 µM.
Turning to `Cc1cc(SC(C)C)c(NC(=O)CCCCCCSc2nc3c(C)c(Cl)cc(C(C)C)c3o2)c(SC(C)C)n1` [Compound No. 1302, 7-(5-chloro-7-isopropyl-4-methylbenzoxazol-2-ylthio)-N-[2,4-bis(isopropylthio)-6-methyl-3-pyridyl]heptanamide], the IC50 with J774 cells (Mus musculus) was 0.0021 µM; with HepG2 cells (Homo sapiens), 0.015 µM. In addition, the “IC50 (HepG2) / IC50 (J774)” value in the experiment on J774 cells came to 7.1.
With `CC(C)c1cccc(C(C)C)c1NC(=O)C(C)(C)CCCOc1ccc2c(c1)C=C(c1nccn1C)C(CCc1ccc(F)cc1)O2` (centres unmarked) [Control 1, 5-[2-(2-(4-fluorophenyl)ethyl)-3-(1-methyl-1H-imidazol-2--yl)-2H-1-benzopyran-6-yl]oxy-2,2-dimethyl-N-(2,6-diisopropylphenyl)pentanamide, reference compound], the half-maximal inhibitory concentration (IC50) worked out at 0.45 µM in experiment [1] (A‡: the blood vessel wall, microsome from breast aorta of rabbit fed 1% cholesterol food for 8 weeks, 14C-Oleoyl-CoA 40 µM, 37°C, 5 minutes); 0.56 µM with J774 cells (Mus musculus); 5.3 µM with HepG2 cells (Homo sapiens). Also, the “IC50 (B‡) / IC50 (A‡)” value in experiment [1] is given as 1.9. Besides, in the experiment on J774 cells, the “IC50 (HepG2) / IC50 (J774)” value is 9.5.
`CCCCCCCCCN(CC(C)(C)C)C(=O)N[C@H]1CCCC[C@@H]1OC(=O)CCNC(=O)C1OC(C)(C)OCC1(C)C` (stereo partly drawn) [Control 3, N-(2,2,5,5-tetramethyl-1,3-dioxan-4-ylcarbonyl)-β-alanine 2 (S)-[N'-(2,2-dimethylpropyl)-N'-nonylureido]-1(S)-cyclohexyl ester, reference compound]: the IC50 amounted to 0.32 µM with J774 cells (Mus musculus) and 1.3 µM in the experiment with HepG2 cells (Homo sapiens).
As to `CCCCCCCN(CCCCCSc1nc(-c2ccccc2)c(-c2ccccc2)[nH]1)c1nc2ccccc2o1` [Control 4, [5-(4,5-diphenyl-1H-imidazol-2-ylthio)pentyl]-N-heptyl-2-benzoxazolamie, reference compound], in experiment [1], the “IC50 (B‡) / IC50 (A‡)” value is 1.4. The IC50 with J774 cells (Mus musculus) amounted to 0.12 µM; in the experiment on HepG2 cells (Homo sapiens), 0.75 µM. Besides, in the experiment with J774 cells, the “IC50 (HepG2) / IC50 (J774)” value is listed as 6.3.
Take `CC(C)c1cccc(C(C)C)c1NC(=O)CCCCCSc1nc2ccccc2o1` [Control 5, 6-(benzoxazol-2-ylthio)-N-(2,6-diisopropylphenyl)hexanamide, reference compound]: the results for the IC50 in the experiment on J774 cells (Mus musculus) and with HepG2 cells (Homo sapiens) were 1.9 µM and 1.6 µM, respectively. Further, in the experiment with J774 cells, the “IC50 (HepG2) / IC50 (J774)” value stood at 0.8.
With `Cc1cc(SC(C)C)c(NC(=O)CCCCCCCCSc2nc3cccc(C(F)(F)F)c3o2)c(SC(C)C)n1` [compound 1294, 9-(7-trifluoromethylbenzoxazol-2-ylthio)-N-[2,4-bis(isopropylthio)-6-methyl-3-pyridyl] nonanamide], in the experiment with J774 cells, the IC50 is 0.0042 µM and the “IC50 (HepG2) / IC50 (J774)” value was 0.6. Moreover, the IC50 in the experiment with HepG2 cells was 0.0024 µM.

(Values after patent EP0979823B1, “NOVEL AMIDE COMPOUNDS AND DRUGS CONTAINING THE SAME” (Kowa Company Ltd., priority 1997, dated 1999).)
